# pEC50: −log10 of the molar value. Read-outs that look alike come from different tables or passages of the source.
# What was measured:
# SARS-COV-2 [1] = assay: Combination with SARS-COV-2 nsp14 (exonuclease) inhibitors in Calu-3 cells, infectious virus titers; type: cell-based; conditions: for effect of co-treatment with raltegravir or dolutegravir (iEXO) on inhibition of SARS-COV-2: drug 10 μM, raltegravir or dolutegravir 5 μM
# [2] = Cytotoxicity assay (XTT) in Vero cells; type: cell-based; conditions: African green monkey
# Experimental: (§1) In parallel, cytotoxicity assays were performed.
# SARS-COV-2 [3] = assay: SARS-COV-2 viral RNA synthesis in HuH-7 cells (real time RT-PCR); type: cell-based
# SARS-COV-2 [4] = conditions: for SI: CC50/EC50
# SARS-COV-2 [5] = assay: SARS-COV-2 RNA loads in human primary monocytes; type: cell-based; conditions: 24 h
# Experimental: FIG. 5A, 5B and 5C. The compounds impair SARS-COV-2 RNA synthesis and SARS-COV-2-induced release of inflammatory mediators in human primary monocytes.
# Human primary monocytes were obtained after 3 h of plastic adherence of peripheral blood mononuclear cells (PBMCs). PBMCs were isolated from healthy donors by density gradient centrifugation (Ficoll-Paque, GE Healthcare). PBMCs (2.0×10^6 cells) were plated onto 48-well plates (NalgeNunc) in RPMI-1640 without serum for 2 to 4 h. Non-adherent cells were removed, and the remaining monocytes were maintained in DMEM with 5% human serum (HS; Millipore) and penicillin/streptomycin. Monocytes were infected at MOI of 0.1. After 1 h inoculation period, cells were washed with phosphate saline buffer (PBS) to remove unbounded viruses and treated with 1 μM of the indicated compounds. After 24 h after infection, cell monolayers werc lysed total viral RNA was extracted, quantitative RT-PCR was performed, to detect the SARS-COV-2 and the housekeeping gene RNAse P.
# SARS-COV-2 [6] = assay: SARS-COV-2 viral RNA synthesis in Vero cells (real time RT-PCR); type: cell-based
# [7] = Cytotoxicity assay (XTT) in Calu-3 cells; type: cell-based, human; conditions: human
# Experimental: as §1
# [8] = Cytotoxicity assay (XTT) in Huh-7 cells; type: cell-based; conditions: human
# Experimental: In parallel, cytotoxicity assays were performed. Monolayers of 1.5×10^4 cells in 96-well plates were treated for 3 days with various concentrations (semi-log dilutions from 1,000 to 10 μM) of the antiviral drugs. Then, 5 mg/mL 2,3-bis-(2-methoxy-4-nitro-5-sulfophenyl)-2H-tetrazolium-5-carboxanilide (XTT) in DMEM was added to the cells in the presence of 0.01% of N-methyl dibenzopyrazine methyl sulfate (PMS).
# [9] = test system: Salmonella typhimirium TA 97a, TA 98, TA 100, TA 102 and TA 1535; assay: Bacterial reverse mutation (Ames) test
# Calu-3 cells = assay: Cytotoxicity assay (XTT) in Calu-3 cells; type: cell-based, human; conditions: Calu-3, daily treatment
# Experimental: as §1
# [10] = Calu-3, single moment treatment
# [11] = Severe acute respiratory syndrome coronavirus 2, Calu-3, 72 h, Calu-3 (MOI 0.5 72 h), single moment treatment
# [12] = Calu-3, alone or in combination as labelled
# [13] = Severe acute respiratory syndrome coronavirus 2, Calu-3, alone or in combination as labelled
# [14] = Severe acute respiratory syndrome coronavirus 2, Calu-3, 72 h, Calu-3 (MOI 0.5 72 h), daily treatment
# [15] = Severe acute respiratory syndrome coronavirus 2, Calu-3, Table 6, Calu-3, daily treatment
# [16] = Severe acute respiratory syndrome coronavirus 2, Calu-3, Table 6, Calu-3, single treatment
# [17] = Table 6, Calu-3, daily treatment
# [18] = Table 6, Calu-3, single treatment
compound,measurement,setting,value
CC(C)OC(=O)[C@H](C)N[P@](=O)(OC[C@H]1O[C@@H](n2ccc(=O)[nH]c2=O)[C@](C)(F)[C@@H]1O)Oc1ccccc1 [sofosbuvir],effect of co-treatment with raltegravir or dolutegravir (iEXO) on inhibition of SARS-COV-2,SARS-COV-2 [1]; calu-3,enhanced efficiency
"C/C(=C\CNc1ncnc2c1ncn2[C@@H]1O[C@H](CO)[C@@H](O)[C@H]1O)CO [MB-804, zeatin riboside]",CC50 at 3 days,[2],636 µM
same,SI,"SARS-COV-2 [3]; Huh-7, CC50/EC50",78
same,pEC50,"SARS-COV-2 [3]; Severe acute respiratory syndrome coronavirus 2, Huh-7 (MOI 0.1 48 h), read-out: EC50",5.14
same,SI,SARS-COV-2 [4]; [10],500
same,pEC50,SARS-COV-2 [4]; [11],5.92
same,EC90,SARS-COV-2 [4]; [11],9.1 µM
same,viral RNA levels/cell,SARS-COV-2 [5],reduced
same,pEC50,"SARS-COV-2 [6]; Severe acute respiratory syndrome coronavirus 2, Vero (MOI 0.01 24 h), read-out: EC50",5.85
same,SI,"SARS-COV-2 [6]; Vero, CC50/EC50",454
same,effect of co-treatment with raltegravir or dolutegravir (iEXO) on inhibition of SARS-COV-2,SARS-COV-2 [1]; calu-3,synergistic
same,CC50 at 3 days,[7]; [10],580 µM
same,CC50 at 3 days,[8],550 µM
C[C@H](Cn1cnc2c(N)ncnc21)OCP(=O)(O)O [Tenofovir],pEC50,SARS-COV-2 [1]; [12],5.37
same,effect of co-treatment with raltegravir or dolutegravir (iEXO) on inhibition of SARS-COV-2,SARS-COV-2 [1]; calu-3,enhanced efficiency
"[N-]=[N+]=[N-] [sodium azide, reference compound]",Mutagenicity,"[9]; TA 100 −S9, positive control 1.5 μg/plate",+
same,Mutagenicity,"[9]; TA 1535 −S9, positive control 1.5 μg/plate",+
"Cc1nnc(C(=O)NC(C)(C)c2nc(C(=O)NCc3ccc(F)cc3)c(O)c(=O)n2C)o1 [RTG, raltegravir]",pEC50,SARS-COV-2 [1]; [13],5.32
same,effect on SARS-COV-2 replication,"SARS-COV-2 [1]; calu-3, 5 μM",marginal effects
"Nc1ccc2cc3ccccc3cc2c1 [2-aminoanthracene, reference compound]",Mutagenicity,"[9]; TA 102 +S9, positive control 5 μg/plate",+
same,Mutagenicity,"[9]; TA 1535 +S9, positive control 2.5 μg/plate",+
"CC(C)C(=O)OC[C@H]1O[C@@H](n2ccc(NO)nc2=O)[C@H](O)[C@@H]1O [MK-4482, N-4-hydroxycytidine-5′-isopropyl ester, reference compound]",efficiency impaired due to daily treatment,SARS-COV-2 [4]; Calu-3,2 times
same,SI,"SARS-COV-2 [4]; Calu-3, daily treatment",2900 µM
same,pEC50,SARS-COV-2 [4]; [14],7.70
same,EC90,SARS-COV-2 [4]; [14],8.6 µM
same,pEC50,SARS-COV-2 [4]; [15],7.70
same,EC90,SARS-COV-2 [4]; [15],8.6 µM
same,pEC50,SARS-COV-2 [4]; [16],6.14
same,EC90,SARS-COV-2 [4]; [16],3.4 µM
same,SI,SARS-COV-2 [4]; [17],"2,900"
same,SI,SARS-COV-2 [4]; [18],80
same,EC99 mean,SARS-COV-2 [1]; [12],9 µM
same,pEC50,SARS-COV-2 [1]; [13],6.10
same,EC90,SARS-COV-2 [1]; [13],7 µM
same,CC50,Calu-3 cells,58 µM
same,CC50 at 3 days,[7]; [17],58 µM
same,CC50 at 3 days,[7]; [18],58 µM
c1coc(CNc2ncnc3c2ncn3C2CCCCO2)c1 (stereo not shown) [MB-906],anti-coronavirus activity (SARS-COV-2 replication),SARS-COV-2 [3],not endowed with anti-coronavirus activity
same,anti-coronavirus activity (SARS-COV-2 replication),SARS-COV-2 [4],not endowed with anti-coronavirus activity
NC(=O)c1nc(F)c[nH]c1=O [Favipiravir],pEC50,SARS-COV-2 [1]; [13],5.11
